This note sets out measurements from PubChem BioAssay AID330 (DTP/NCI, 2004).

Molecules are shown by their SMILES. Several values for one entry are separate records, joined by “and”; a condition that tells them apart may be missing. Equal entries are not always repeated. Toxic doses and inconclusive results are not listed.

The subject of this assay is P388 leukemia ip, CD2F1 mice, survival T/C. In words: NCI In Vivo Anticancer Drug Screen. Data for tumor model P388 Leukemia (intraperitoneal) in CD2F1 (CDF1) mice. The settings on record: endpoint: median survival time, higher = longer survival. The procedure, abridged:
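Mice carrying the transplanted tumor received test compound or vehicle. Survival was recorded in each group, and the value is the treated-group measurement divided by that of the vehicle-treated control group.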

[1] abbreviates: dose: 200.0 mg/kg/injection, schedule: Q01DX009 (ip), vehicle: saline with Tween-80.
[2] abbreviates: dose: 50.0 mg/kg/injection, schedule: Q01DX009 (ip), vehicle: saline with Tween-80.
Setting [3] is: dose: 50.0 mg/kg/injection, schedule: Q01DX005 (ip), vehicle: Klucel (hydroxypropylcellulose) (HPC).
The mark [4] stands for this setting: dose: 100.0 mg/kg/injection, schedule: Q01DX005 (ip), vehicle: Klucel (hydroxypropylcellulose) (HPC).
Setting [5] is: dose: 200.0 mg/kg/injection, schedule: Q01DX005 (ip), vehicle: Klucel (hydroxypropylcellulose) (HPC).
The mark [6] stands for this setting: dose: 50.0 mg/kg/injection, schedule: Q01DX005 (ip), vehicle: saline with Tween-80.
Setting [7] is: dose: 100.0 mg/kg/injection, schedule: Q01DX005 (ip), vehicle: saline with Tween-80.
[8] abbreviates: dose: 100.0 mg/kg/injection, schedule: Q04DX002 (ip), vehicle: saline with Tween-80.
[9] abbreviates: dose: 200.0 mg/kg/injection, schedule: Q04DX002 (ip), vehicle: saline with Tween-80.
Where [10] appears, read: dose: 400.0 mg/kg/injection, schedule: Q04DX002 (ip), vehicle: saline with Tween-80.

Take `Cc1c2oc3c(C)c([N+](=O)[O-])cc(C(=O)NC4C(=O)NC(C(C)C)C(=O)N5CCCC5C(=O)N(C)CC(=O)N(C)C(C(C)C)C(=O)OC4C)c3nc-2c(C(=O)NC2C(=O)NC(C(C)C)C(=O)N3CCCC3C(=O)N(C)CC(=O)N(C)C(C(C)C)C(=O)OC2C)c(N)c1=O` (centres undefined): the T/C runs as follows: (dose: 0.01 mg/kg/injection, schedule: Q01DX009 (ip), vehicle: Klucel (hydroxypropylcellulose) (HPC)) 90 % of control; (dose: 0.02 mg/kg/injection, schedule: Q01DX009 (ip), vehicle: Klucel (hydroxypropylcellulose) (HPC)) 106 % of control; (dose: 0.04 mg/kg/injection, schedule: Q01DX009 (ip), vehicle: Klucel (hydroxypropylcellulose) (HPC)) 108 % of control; (dose: 0.08 mg/kg/injection, schedule: Q01DX009 (ip), vehicle: Klucel (hydroxypropylcellulose) (HPC)) 120 % of control and 217 % of control; (dose: 0.3 mg/kg/injection, schedule: Q01DX009 (ip), vehicle: Klucel (hydroxypropylcellulose) (HPC)) 218 % of control.
On to `C[C@@H]1C[C@H]2CC[C@H](O2)[C@H](C)C(=O)O[C@@H](C)C[C@@H]2CC[C@@H](O2)[C@@H](C)C(=O)O[C@H](C)C[C@H]2CC[C@H](O2)[C@H](C)C(=O)O[C@@H](C)C[C@@H]2CC[C@@H](O2)[C@@H](C)C(=O)O1`, for which the T/C was 100 % of control (dose: 132.0 mg/kg/injection, schedule: Q01DX009 (ip), vehicle: saline with Tween-80); 104 % of control under setting [1]; 104 % of control (dose: 300.0 mg/kg/injection, schedule: Q01DX009 (ip), vehicle: saline with Tween-80).
As for `O=S(=O)(O)O.[NH2-].[NH2-].[Pt+2]`, the T/C by setting is: (dose: 1.56 mg/kg/injection, schedule: Q04DX002 (ip), vehicle: saline with Tween-80) 112 % of control; (dose: 6.25 mg/kg/injection, schedule: Q04DX002 (ip), vehicle: saline with Tween-80) 162 % of control; (dose: 12.5 mg/kg/injection, schedule: Q04DX002 (ip), vehicle: saline with Tween-80) 156 % of control.
Regarding `S=c1sc2cccnc2s1`, the T/C (dose: 12.5 mg/kg/injection, schedule: Q01DX009 (ip), vehicle: saline with Tween-80) was 99 % of control; the T/C (dose: 25.0 mg/kg/injection, schedule: Q01DX009 (ip), vehicle: saline with Tween-80) was 100 % of control; the T/C under setting [2] is 104 % of control and 111 % of control.
Take `O=c1cc(O)nc2nc(-c3ccccc3)c(-c3ccccc3)nn12`: the T/C is, setting by setting: under setting [3], 101 % of control; under setting [4], 93 % of control; under setting [5], 93 % of control.
Regarding `CC1(C)COSOC1`, the T/C was 98 % of control (dose: 100.0 mg/kg/injection, schedule: Q01DX001 (ip), vehicle: Klucel (hydroxypropylcellulose) (HPC)); 104 % of control (dose: 200.0 mg/kg/injection, schedule: Q01DX001 (ip), vehicle: Klucel (hydroxypropylcellulose) (HPC)); 104 % of control (dose: 400.0 mg/kg/injection, schedule: Q01DX001 (ip), vehicle: Klucel (hydroxypropylcellulose) (HPC)).
For `Cc1ccnc(NS(=O)(=O)c2ccc(Nc3c4ccccc4nc4cc(Cl)ccc34)cc2)n1`, the T/C reads like this: (dose: 100.0 mg/kg/injection, schedule: Q04DX003 (ip), vehicle: Klucel (hydroxypropylcellulose) (HPC)) 104 % of control and 114 % of control; (dose: 200.0 mg/kg/injection, schedule: Q04DX003 (ip), vehicle: Klucel (hydroxypropylcellulose) (HPC)) 106 % of control and 118 % of control; (dose: 400.0 mg/kg/injection, schedule: Q04DX003 (ip), vehicle: Klucel (hydroxypropylcellulose) (HPC)) 124 % of control.
With `O=C(CCCN1CCC(C(=O)c2ccc(Cl)cc2)CC1)c1ccc(F)cc1`, the T/C is, setting by setting: (dose: 3.0 mg/kg/injection, schedule: Q01DX009 (ip), vehicle: Klucel (hydroxypropylcellulose) (HPC)) 99 % of control; (dose: 6.0 mg/kg/injection, schedule: Q01DX009 (ip), vehicle: Klucel (hydroxypropylcellulose) (HPC)) 97 % of control; (dose: 12.0 mg/kg/injection, schedule: Q01DX009 (ip), vehicle: Klucel (hydroxypropylcellulose) (HPC)) 108 % of control.
Take `CN(C)CCCOC1(Cc2ccc(F)cc2)CCCCCC1`: the T/C runs as follows: under setting [6], 102 % of control; under setting [7], 102 % of control.
As to `Nc1cc2nc(=O)cc3n2c(n1)SC3`, the T/C reads like this: under setting [3], 99 % of control; under setting [4], 100 % of control; under setting [5], 100 % of control.
Turning to `COc1ccccc1C1C2CCCC(C2O)C(c2ccccc2OC)N1C` (centres undefined), the T/C was 99 % of control and 92 % of control (dose: 100.0 mg/kg/injection, schedule: Q04DX003 (ip), vehicle: saline); 100 % of control (dose: 100.0 mg/kg/injection, schedule: Q04DX003 (ip), vehicle: suspension in saline); 98 % of control and 102 % of control (dose: 200.0 mg/kg/injection, schedule: Q04DX003 (ip), vehicle: saline); 107 % of control (dose: 200.0 mg/kg/injection, schedule: Q04DX003 (ip), vehicle: suspension in saline); 98 % of control and 94 % of control (dose: 400.0 mg/kg/injection, schedule: Q04DX003 (ip), vehicle: saline); 99 % of control (dose: 400.0 mg/kg/injection, schedule: Q04DX003 (ip), vehicle: suspension in saline).
Turning to `OC1(CN2CCCCC2)CCCOCCCOCCCOCCCOCCCOCCC1`, the T/C by setting is: under setting [6], 94 % of control; under setting [7], 99 % of control; (dose: 200.0 mg/kg/injection, schedule: Q01DX005 (ip), vehicle: saline with Tween-80) 100 % of control.
With `COc1ccc(C2c3cc4c(cc3OC(C)(O)C2C)OCO4)c(OC)c1OC` (centres undefined), the T/C was 100 % of control under setting [8], 96 % of control under setting [9] and 86 % of control under setting [10].
For `O=c1c(Cl)c2cc3c(cc2c2ccccc12)nc1ccccc1n3-c1ccccc1`, the T/C (dose: 400.0 mg/kg/injection, schedule: Q01DX001 (ip), vehicle: saline with Tween-80) is 89 % of control.
Consider `CCN(CC)C(=S)Oc1cc2oc(=O)cc(C)c2cc1Cl`, for which the T/C under setting [2] is 98 % of control; the T/C (dose: 100.0 mg/kg/injection, schedule: Q01DX009 (ip), vehicle: saline with Tween-80) is 100 % of control; the T/C under setting [1] was 100 % of control.
For the compound `CC1CN1P(=O)(N1CC=CCC1)N1CC1C` (centres undefined), the T/C was 100 % of control (dose: 22.0 mg/kg/injection, schedule: Q04DX003 (ip), vehicle: saline); 150 % of control (dose: 33.0 mg/kg/injection, schedule: Q01DX009 (ip), vehicle: saline); 113 % of control (dose: 33.0 mg/kg/injection, schedule: Q04DX003 (ip), vehicle: saline); 122 % of control (dose: 50.0 mg/kg/injection, schedule: Q04DX003 (ip), vehicle: saline); 150 % of control (dose: 75.0 mg/kg/injection, schedule: Q04DX003 (ip), vehicle: saline).
In the case of `C=C1C(=O)C23CC1CCC2C12COC(OC(=O)CCCCCCCCCCCCCCC)C1C(C)(C)C(O)CC2OC3=O` (centres undefined), the T/C is 96 % of control (dose: 7.5 mg/kg/injection, schedule: Q01DX009 (ip), vehicle: saline with Tween-80); 99 % of control (dose: 15.0 mg/kg/injection, schedule: Q01DX009 (ip), vehicle: saline with Tween-80); 97 % of control (dose: 30.0 mg/kg/injection, schedule: Q01DX009 (ip), vehicle: saline with Tween-80); 100 % of control (dose: 60.0 mg/kg/injection, schedule: Q01DX009 (ip), vehicle: saline with Tween-80).
Turning to `O=C1c2ccccc2S(=O)(=O)CC12OC2c1ccc(Cl)cc1` (centres undefined), the T/C is 88 % of control under setting [8], 88 % of control under setting [9] and 94 % of control under setting [10].
Turning to `COc1cc2cc(c1Cl)N1CC(O)C(C)(O)C(=O)NC(C)C(=O)OC(CC1=O)C1(C)OC1C(C)C1CC(O)(NC(=O)O1)C(OC)/C=C\C=C(\C)C2OC` (centres undefined), the T/C reads like this: (dose: 7.75 micrograms/kg/injection, schedule: Q01DX009 (ip), vehicle: none) 153 % of control; (dose: 15.5 micrograms/kg/injection, schedule: Q01DX009 (ip), vehicle: none) 159 % of control.
Turning to `CN(N=O)N1C(=O)SCC(c2ccccc2)(c2ccccc2)C1=O`, the T/C is 97 % of control (dose: 60.0 mg/kg/injection, schedule: Q01DX005 (ip), vehicle: Klucel (hydroxypropylcellulose) (HPC)); 90 % of control (dose: 120.0 mg/kg/injection, schedule: Q01DX005 (ip), vehicle: Klucel (hydroxypropylcellulose) (HPC)); 88 % of control (dose: 240.0 mg/kg/injection, schedule: Q01DX005 (ip), vehicle: Klucel (hydroxypropylcellulose) (HPC)).
